Measurements: patent publication US20090264401A1, “SUBSTITUTED PYRIMIDIN-5-CARBOXAMIDES 281” (AstraZeneca AB, priority 2008, published 2009)
pIC50: −log10 of the molar value.

Molecular target: T1, human 11βHSD1 enzyme (Homo sapiens, UniProt P28845)
T1 construct: baculovirus expressed N terminal 6-His tagged full length human 11βHSD1 enzyme; 6-His (N); made in house
Experiment: 11βHSD1 cortisone to cortisol conversion, competitive HTRF assay
Format: biochemical
Conditions: for inhibition at 30 µM: human 11-βHSD, test concentration of 30 μM of compound; for pIC50: recombinant N terminal 6-His tagged full length human 11βHSD1, cortisone 160 nM, 25 minutes at 37° C.
Procedure: The evaluation of compounds described herein was carried out using a baculovirus expressed N terminal 6-His tagged full length human 11βHSD1 enzyme(*1). The enzyme was purified from a detergent solubilised cell lysate, using a copper chelate column. Inhibitors of 11βHSD1 reduce the conversion of cortisone to cortisol, which is identified by an increase in signal, in the above assay.
Compounds to be tested were dissolved in dimethyl sulphoxide (DMSO) to 10 mM and diluted further in assay buffer containing 1% DMSO to 10 fold the final assay concentration. Diluted compounds were then plated into black 384 well plates (Matrix, Hudson N.H., USA).
Fluorescence at 665 nm and 620 nm was measured and the 665 nm:620 nm ratio calculated using an Envision plate reader.

T1 sequence (P28845 whole entry): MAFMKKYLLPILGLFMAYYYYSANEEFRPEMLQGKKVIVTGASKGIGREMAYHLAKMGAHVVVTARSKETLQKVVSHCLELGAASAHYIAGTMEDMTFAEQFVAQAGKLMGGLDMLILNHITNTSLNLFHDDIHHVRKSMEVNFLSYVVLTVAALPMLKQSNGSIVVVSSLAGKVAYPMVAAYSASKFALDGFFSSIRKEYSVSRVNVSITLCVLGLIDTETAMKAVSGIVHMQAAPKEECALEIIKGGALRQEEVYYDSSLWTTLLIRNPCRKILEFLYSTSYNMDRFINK

Row | Structure (SMILES) | inhibition at 30 µM [%] | pIC50
1 | NCc1ncc(C(=O)N[C@H]2C3CC4CC2C[C@@](O)(C4)C3)c(C2CCCC2)n1 [Example 152, 2-(Aminomethyl)-4-cyclopentyl-N-[(2r,5s)-5-hydroxyadamantan-2-yl]pyrimidine-5-carboxamide] | 97.8 | 
2 | O=C(N[C@H]1C2CC3CC1C[C@@](O)(C3)C2)c1cnc(N2CCOCC2)nc1N1CCOCC1 [compound 32] | 97 | 6.66
3 | C[C@@H]1CN(c2ncc(C(=O)N[C@H]3C4CC5CC3C[C@@](O)(C5)C4)c(C3CCC3)n2)C[C@H](C)O1 [Example 92, 4-cyclobutyl-2-[(2R,6S)-2,6-dimethylmorpholin-4-yl]-N-[(2r,5s)-5-hydroxyadamantan-2-yl]pyrimidine-5-carboxamide] | 97.1 | 
4 | CC(C)(CO)Nc1ncc(C(=O)N[C@H]2C3CC4CC2C[C@@](O)(C4)C3)c(C2CCC2)n1 [Example 95, 4-cyclobutyl-N-[(2r,5s)-5-hydroxyadamantan-2-yl]-2-[(2-hydroxy-1,1-dimethylethyl)amino]pyrimidine-5-carboxamide] | 97.3 | 
5 | CNc1ncc(C(=O)N[C@H]2C3CC4CC2C[C@@](O)(C4)C3)c(C2CCCC2)n1 [Example 118, 4-cyclopentyl-N-[(2r,5s)-5-hydroxyadamantan-2-yl]-2-methylaminopyrimidine-5-carboxamide] | 93.7 | 
6 | CC(C)Oc1nc(NC2CC2)ncc1C(=O)N[C@H]1C2CC3CC1C[C@@](O)(C3)C2 [Example 215, 2-(cyclopropylamino)-N-[(2r,5s)-5-hydroxytricyclo[3.3.1.13,7]dec-2-yl]-4-(1-methylethoxy)pyrimidine-5-carboxamide] | 94.9 | 
7 | CC(C)Nc1ncc(C(=O)N[C@H]2C3CC4CC2C[C@@](O)(C4)C3)c([C@@H]2CCCO2)n1 [Example 179, N-[(2r,5s)-5-hydroxyadamantan-2-yl]-4-[(2S)-oxolan-2-yl]-2-(propan-2-ylamino)pyrimidine-5-carboxamide] | 95.1 | 
8 | O=C(N[C@H]1C2CC3CC1C[C@@](O)(C3)C2)c1cnc(NCCN2CCOCC2)nc1C1CC1 [Example 72, 4-cyclopropyl-N-[(2r,5s)-5-hydroxyadamantan-2-yl]-2-[(2-morpholin-4-ylethyl)amino]pyrimidine-5-carboxamide] | 91.6 | 
9 | CCCSc1nc(N2CCC[C@@H](CC(=O)O)C2)ncc1C(=O)NC1CCCCC1 [Example 20, {(3S)-1-[5-(Cyclohexylcarbamoyl)-4-(propylthio)pyrimidin-2-yl]piperidin-3-yl}acetic acid] | 97.6 | 8.70
10 | CSc1ncc(C(=O)N[C@H]2C3CC4CC2C[C@@](O)(C4)C3)c(C2CC2)n1 [Example 11, 4-Cyclopropyl-N-[(2r,5s)-5-hydroxyadamantan-2-yl]-2-methylsulfanyl-pyrimidine-5-carboxamide] | 97.5 | 7.15
11 | CC(=O)N1CCN(c2ncc(C(=O)N3CCC(c4cccnc4)C3)c(C3CC3)n2)CC1 (stereo not drawn) [Example 80, 1-(4-(4-cyclopropyl-5-(3-(pyridin-3-yl)pyrrolidine-1-carbonyl)pyrimidin-2-yl)piperazin-1-yl)ethanone] | 99.2 | 
12 | O=C(N[C@H]1C2CC3CC1C[C@@](O)(C3)C2)c1cnc(OC2COC2)nc1C1CCCC1 [Example 113, 4-cyclopentyl-N-[(2r,5s)-5-hydroxyadamantan-2-yl]-2-(oxetan-3-yloxy)pyrimidine-5-carboxamide] | 98.4 | 
13 | O=C(N[C@H]1C2CC3CC1C[C@@](O)(C3)C2)c1cnc(N2CC3CC2CS3(=O)=O)nc1C1CC1 [Example 48, 4-Cyclopropyl-2-(3,3-dioxo-3λ6-thia-6-azabicyclo[2.2.1]heptan-6-yl)-N-[(2r,5 s)-5-hydroxyadamantan-2-yl]pyrimidine-5-carboxamide] | 100 | 
14 | CC(C)Oc1nc(NC2CCC2)ncc1C(=O)N[C@H]1C2CC3CC1C[C@@](O)(C3)C2 [Example 217, 2-(cyclobutylamino)-N-[(2r,5s)-5-hydroxytricyclo[3.3.1.13,7]dec-2-yl]-4-(1-methylethoxy)pyrimidine-5-carboxamide] | 94.2 | 
15 | O=C(N[C@H]1C2CC3CC1C[C@@](O)(C3)C2)c1cnc(N2CC3CC2C[S+]3[O-])nc1C1CC1 (stereo partly drawn) [Example 47, 4-Cyclopropyl-N-[(2r,5s)-5-hydroxyadamantan-2-yl]-2-(3-oxo-3 ?4-thia-6-azabicyclo[2.2.1]heptan-6-yl)pyrimidine-5-carboxamide] | 97.3 | 
16 | O=C(N[C@H]1C2CC3CC1C[C@@](O)(C3)C2)c1cnc(OC2CCCC2)nc1C1CCCC1 [Example 112, 4-cyclopentyl-2-cyclopentyloxy-N-[(2r,Ss)-5-hydroxyadamantan-2-yl]pyrimidine-5-carboxamide] | 104 | 

Row | Structure (SMILES) | inhibition at 30 µM [%] | pIC50
17 | COc1ncc(C(=O)NC2C3CC4CC2CC(O)(C4)C3)c(C2(C)CC2)n1 (stereo not drawn) [Example 187, N-[(2r,5 s)-5-hydroxyadamantan-2-yl]-2-methoxy-4-(1-methylcyclopropyl)pyrimidine-5-carboxamide] | 99 | 
18 | C[C@@H]1CN(c2ncc(C(=O)N[C@H]3C4CC5CC3C[C@@](O)(C5)C4)c([C@H]3CCCO3)n2)C[C@H](C)N1 [Example 172, 2-[(3S,5R)-3,5-dimethylpiperazin-1-yl]-N-[(2r,5s)-5-hydroxyadamantan-2-yl]-4-[(2R)-oxolan-2-yl]pyrimidine-5-carboxamide] | 97.2 | 
19 | O=C(N[C@H]1C2CC3CC1C[C@@](O)(C3)C2)c1cnc(N2CCOC(CO)C2)nc1C1CCCC1 (stereo partly drawn) [Example 145, 4-cyclopentyl-N-[(2r,Ss)-5-hydroxyadamantan-2-yl]-2-[2-(hydroxymethyl)morpholin-4-yl]pyrimidine-5-carboxamide] | 92.9 | 
20 | O=C(N[C@H]1C2CC3CC1C[C@@](O)(C3)C2)c1cnc(NC2CC2)nc1C1CCC1 [Example 88, 4-cyclobutyl-2-(cyclopropylamino)-N-[(2r,5s)-5-hydroxyadamantan-2-yl]pyrimidine-5-carboxamide] | 94.9 | 
21 | CCCSc1ncc(C(=O)N[C@H]2C3CC4CC2C[C@@](O)(C4)C3)c(N2CCN(C(C)=O)CC2)n1 [Example 25, 4-(4-Acetylpiperazin-1-yl)-N-[(2r,5 s)-5-hydroxyadamantan-2-yl]-2-propylsulfanylpyrimidine-5-carboxamide] | 101 | 
22 | O=C(N[C@H]1C2CC3CC1C[C@@](O)(C3)C2)c1cnc(N2CCOCC2CO)nc1C1CC1 (stereo partly drawn) [Example 60, 4-cyclopropyl-N-[(2r,5s)-5-hydroxyadamantan-2-yl]-2-[3-(hydroxymethyl)morpholin-4-yl]pyrimidine-5-carboxamide] | 95.1 | 
23 | Nc1ncc(C(=O)N[C@H]2C3CC4CC2C[C@@](O)(C4)C3)c(C2CCC2)n1 [Example 84, 2-Amino-4-cyclobutyl-N-[(2r,5s)-5-hydroxyadamantan-2-yl]pyrimidine-5-carboxamide] | 97.5 | 
24 | O=C(N[C@H]1C2CC3CC1C[C@@](O)(C3)C2)c1cnc(N2CCOC(CO)C2)nc1C1CC1 (stereo partly drawn) [Example 59, 4-cyclopropyl-N-[(2r,5s)-5-hydroxyadamantan-2-yl]-2-[2-(hydroxymethyl)morpholin-4-yl]pyrimidine-5-carboxamide] | 95.6 | 
25 | CC(C)Oc1ncc(C(=O)N[C@H]2C3CC4CC2C[C@@](O)(C4)C3)c(C2CCCO2)n1 (stereo partly drawn) [Example 165] | 105 | 
26 | CCCSc1ncc(C(=O)N[C@H]2C3CC4CC2C[C@@](O)(C4)C3)c(N2C[C@@H](C)O[C@@H](C)C2)n1 [Example 24, 4-[(2S,6R)-2,6-Dimethylmorpholin-4-yl]-N-[(2r,5s)-5-hydroxyadamantan-2-yl]-2-propylsulfanylpyrimidine-5-carboxamide] | 68 | 
27 | CNc1ncc(C(=O)N[C@H]2C3CC4CC2C[C@@](O)(C4)C3)c(C2CC(F)(F)C2)n1 [Example 154, 4-(3,3-difluorocyclobutyl)-N-[(2r,5s)-5-hydroxyadamantan-2-yl]-2-methylaminopyrimidine-5-carboxamide] | 88 | 
28 | O=C(N[C@H]1C2CC3CC1C[C@@](O)(C3)C2)c1cnc(N2CCOCC2CO)nc1C1CCCC1 (stereo partly drawn) [Example 141, 4-cyclopentyl-N-[(2r,5s)-5-hydroxyadamantan-2-yl]-2-[3-(hydroxymethyl)morpholin-4-yl]pyrimidine-5-carboxamide] | 105 | 
29 | O=C(N[C@H]1C2CC3CC1C[C@](O)(C3)C2)c1cnc(NC2CCCC2)nc1C1CCCC1 [Example 130, 4-cyclopentyl-2-(cyclopentylamino)-N-[(2r,5s)-5-hydroxyadamantan-2-yl]pyrimidine-5-carboxamide] | 96.1 | 
30 | CC(C)Oc1ncc(C(=O)N[C@H]2C3CC4CC2C[C@@](O)(C4)C3)c(C2CCC2)n1 [Example 107, 4-cyclobutyl-N-[(2r,5s)-5-hydroxyadamantan-2-yl]-2-isopropoxypyrimidine-5-carboxamide] | 97.3 | 
31 | CC(C)c1ncc(C(=O)N[C@H]2C3CC4CC2C[C@@](O)(C4)C3)c(C2CCCC2)n1 [Example 150, 4-Cyclopentyl-N-[(2r,5s)-5-hydroxyadamantan-2-yl]-2-propan-2-ylpyrimidine-5-carboxamide] | 96 | 
32 | CCCSc1ncc(C(=O)N[C@H]2C3CC4CC2C[C@@](O)(C4)C3)c(N(C)C)n1 [Example 18, 4-Dimethylamino-N-[(2r,5s)-5-hydroxyadamantan-2-yl]-2-propylsulfanylpyrimidine-5-carboxamide] | 98.5 | 8.52
